This is an account of results in patent US11339144B2 (Navitor Pharmaceuticals, Inc., priority 2017, dated 2022).

pIC50: −log10 of the molar value. Where only a bound is given, the exact number is not on record here.

Assay [1] has as its target HA-GST-Rheb (GTP-γ-S loaded) activating mTORC1 (Homo sapiens (Human), UniProt Q15382). Put plainly: Rheb-dependent in vitro kinase assay (Rheb-IVK; LanthaScreen or Western readout). The settings on record: Rheb-dependent in vitro kinase assay; read-out: IVK IC50. In kind it is biochemical. For orientation: TR-FRET usually uses a lanthanide donor and a delayed reading to cut background.

The target in assay [2] is Rheb (Homo sapiens (Human), UniProt Q15382). Description: Affinity Selection Mass Spectrometry (ASMS). In kind it is binding. The settings on record: affinity (R3/R0) in Affinity Selection Mass Spectrometry assay. An outline of the steps:
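Human Rheb (60 μM) with GDP (180 μM) and each compound at 2 μM, protein-plus versus protein-minus, incubated 30 min at room temperature, then washed by 10 kDa ultrafiltration. Retained ligand was released with MeCN and detected by UPLC-Q-TOF MS.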

HA-GST-Rheb (GTP-γ-S loaded) activating mTORC1, sequence (Q15382 1-181): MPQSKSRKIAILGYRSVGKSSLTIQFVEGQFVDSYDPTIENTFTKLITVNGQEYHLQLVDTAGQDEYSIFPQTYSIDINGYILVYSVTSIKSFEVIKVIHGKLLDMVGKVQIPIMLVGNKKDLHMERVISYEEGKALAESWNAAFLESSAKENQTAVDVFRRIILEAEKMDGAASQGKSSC
Rheb, sequence (Q15382 1-169 limits assumed): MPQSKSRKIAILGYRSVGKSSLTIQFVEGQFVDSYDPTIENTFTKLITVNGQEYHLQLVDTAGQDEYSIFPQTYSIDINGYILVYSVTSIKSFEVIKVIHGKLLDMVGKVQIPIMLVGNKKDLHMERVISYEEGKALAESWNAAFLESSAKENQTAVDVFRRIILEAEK

With `OCc1nc2cc(OCc3cccc(F)c3)c(Cl)cc2[nH]1` [I-484, (6-chloro-5-(3-fluorobenzyloxy)-1H-benzo[d]imidazol-2-yl)methanol], the pIC50 in assay [1] is 3.52 to 4.00. Further, the “ASMS (R3/R0)” value in assay [2] was “B (an affinity (R3/R0) between 100% and 20%)”.

For the compound `OCc1nc2cc(Cl)c(OCc3ccccc3)cc2n1Cc1ccc(-c2nnn[nH]2)cc1` [I-440, (1-(4-(1H-tetrazol-5-yl)benzyl)-6-(benzyloxy)-5-chloro-1H-benzo[d]imidazol-2-yl)methanol], in assay [1], the pIC50 is 4.00 to 5.00. In addition, the “ASMS (R3/R0)” value in assay [2] is “C (an affinity (R3/R0)<20%)”.

In the case of `CN(C)C(=O)c1ccc(Cn2c(C(=O)O)cc3c(Br)cc(Sc4ccc(C(F)(F)F)cc4)cc32)cc1` [I-22], in assay [1], the pIC50 is < 4.00. Besides, the “ASMS (R3/R0)” value in assay [2] was “B (an affinity (R3/R0) between 100% and 20%)”.

`CN1CCN(c2cccc(NC(=O)c3cc4c(Sc5ccc(Cl)cc5Cl)cc(Cl)c(Cl)c4[nH]3)c2)CC1` [I-33, 6,7-dichloro-4-(2,4-dichlorophenylthio)-N-(3-(4-methylpiperazin-1-yl)phenyl)-1H-indole-2-carboxamide]: the pIC50 in assay [1] was > 5.00. The “ASMS (R3/R0)” value in assay [2] is listed as “A (an affinity (R3/R0)>100%)”.

For `CN1CCC(NC(=O)c2cc3c(Sc4ccc(Cl)cc4)cc(Cl)cc3[nH]2)CC1` [I-80], the pIC50 in assay [1] is < 4.00. For the same compound, the “ASMS (R3/R0)” value in assay [2] is “B (an affinity (R3/R0) between 100% and 20%)”.

As for `CC(c1ccc(C(=O)N(C)C)cc1)n1c(C(=O)O)cc2c(Br)cc(Sc3ccc(Cl)c(Cl)c3)cc21` (stereo not shown) [I-5, 4-bromo-6-(3,4-dichlorophenylthio)-1-(1-(4-(dimethylcarbamoyl)phenyl)ethyl)-1H-indole-2-carboxylic acid], the pIC50 in assay [1] is > 5.00. In assay [2], the “ASMS (R3/R0)” value was “B (an affinity (R3/R0) between 100% and 20%)”.

Regarding `O=C(O)c1nc2cc(OCc3ccc(Cl)cc3)c(Cl)c(Cl)c2[nH]1` [I-338, 6,7-dichloro-5-(4-chlorobenzyloxy)-1H-benzo[d]imidazole-2-carboxylic acid], in assay [1], the pIC50 was < 5.52. The “ASMS (R3/R0)” value in assay [2] is “B (an affinity (R3/R0) between 100% and 20%)”.

On to `Cn1c(CO)cc2c(Oc3cccc(Cl)c3)cccc21` [I-271], for which the pIC50 in assay [1] was < 5.52. For the same compound, in assay [2], the “ASMS (R3/R0)” value is listed as “C (an affinity (R3/R0)<20%)”.

Take `CN(C)C(=O)c1ccc(Cn2c(-c3nn[nH]n3)cc3c(Br)cc(Sc4ccc(Cl)c(Cl)c4)cc32)cc1` [I-14]: the pIC50 in assay [1] is < 5.52. For the same compound, the “ASMS (R3/R0)” value in assay [2] was “B (an affinity (R3/R0) between 100% and 20%)”.

Regarding `O=C(O)c1ccc(Cn2ccc3c(Br)cc(Oc4ccccc4)cc32)cc1` [I-164, 4-((4-bromo-6-phenoxy-1H-indol-1-yl)methyl)benzoic acid], the pIC50 in assay [1] was 4.00 to 5.00. The “ASMS (R3/R0)” value in assay [2] is “B (an affinity (R3/R0) between 100% and 20%)”.

Turning to `OCc1nc2c(OC[C@H]3CCCC[C@H]3O)c(Cl)c(Cl)cc2[nH]1` (racemic) [I-394, (+,−)-cis-2-((5,6-dichloro-2-(hydroxymethyl)-1H-benzo[d]imidazol-4-yloxy)methyl)cyclohexanol], the pIC50 in assay [1] was 4.00 to 5.00. In addition, the “ASMS (R3/R0)” value in assay [2] is “B (an affinity (R3/R0) between 100% and 20%)”.

For `OCc1nc2c(OC[C@H]3CNCC[C@H]3O)c(Cl)c(Cl)cc2[nH]1` (racemic) [I-386], the pIC50 in assay [1] was < 4.00. Besides, the “ASMS (R3/R0)” value in assay [2] was “C (an affinity (R3/R0)<20%)”.

For `OCc1cc2c(Br)cc(Oc3ccccc3)cc2[nH]1` [I-290, (4-Bromo-6-phenoxy-1H-indol-2-yl)methanol], the pIC50 in assay [1] is 4.00 to 5.00. Also, the “ASMS (R3/R0)” value in assay [2] is “B (an affinity (R3/R0) between 100% and 20%)”.

Regarding `OCc1nc2cc(OCc3ccc(Cl)cc3)c(Cl)c(Cl)c2[nH]1` [I-375, (6,7-dichloro-5-(4-chlorobenzyloxy)-1H-benzo[d]imidazol-2-yl)methanol], the pIC50 in assay [1] is > 5.00. Besides, the “ASMS (R3/R0)” value in assay [2] is listed as “A (an affinity (R3/R0)>100%)”.

On to `Clc1ccc(Oc2cc(Cl)cc3[nH]ccc23)cc1` [I-204, 6-chloro-4-(4-chlorophenoxy)-1H-indole], for which the pIC50 in assay [1] was 4.00 to 5.00. Besides, the “ASMS (R3/R0)” value in assay [2] is on record as “C (an affinity (R3/R0)<20%)”.

Turning to `O=C(O)c1ccc(Cn2c(-c3ccncc3)nc3cc(Cl)c(Cl)cc32)cc1` [I-365, 4-((5,6-dichloro-2-(pyridin-4-yl)-1H-benzo[d]imidazol-1-yl)methyl)benzoic acid], in assay [1], the pIC50 was 4.00 to 5.00. Moreover, the “ASMS (R3/R0)” value in assay [2] is on record as “C (an affinity (R3/R0)<20%)”.

For the compound `CN1CCCN(c2ccc(NC(=O)c3cc4c(Sc5ccc(Cl)cc5Cl)cc(Cl)c(Cl)c4[nH]3)cc2F)CC1` [I-32, 6,7-dichloro-4-(2,4-dichlorophenyl)sulfanyl-N-[3-fluoro-4-(4-methyl-1,4-diazepan-1-yl)phenyl]-1H-indole-2-carboxamide], the pIC50 in assay [1] is > 5.00. Also, the “ASMS (R3/R0)” value in assay [2] is on record as “A (an affinity (R3/R0)>100%)”.

Take `OCc1cc2c(Br)cc(OCCc3ccccc3)cc2[nH]1` [I-236, (4-Bromo-6-phenethoxy-1H-indol-2-yl)methanol]: the pIC50 in assay [1] was 4.00 to 5.00. In addition, in assay [2], the “ASMS (R3/R0)” value is “B (an affinity (R3/R0) between 100% and 20%)”.

As for `CC(C)(C)OC(=O)c1ccc(Cn2c(-c3ccncc3)nc3cc(Cl)c(Cl)cc32)cc1` [I-374], in assay [1], the pIC50 was < 4.00. In addition, in assay [2], the “ASMS (R3/R0)” value is given as “C (an affinity (R3/R0)<20%)”.

With `O=S(=O)(c1cccnc1)n1ccc2c(Sc3ccc(Cl)cc3)cc(Cl)cc21` [I-107], the pIC50 in assay [1] was < 4.00. Also, the “ASMS (R3/R0)” value in assay [2] is “C (an affinity (R3/R0)<20%)”.

As for `CN1CCC[C@@H]1CNC(=O)c1cc2c(Br)cc(Sc3ccc(Cl)c(Cl)c3)cc2[nH]1` [I-57], in assay [1], the pIC50 is < 4.00. Moreover, the “ASMS (R3/R0)” value in assay [2] is on record as “A (an affinity (R3/R0)>100%)”.

With `O=C(NO)c1cc2c(Sc3ccc(Cl)cc3)cc(Cl)cc2[nH]1` [I-177, 6-chloro-4-(4-chlorophenylthio)-N-hydroxy-1H-indole-2-carboxamide], the pIC50 in assay [1] is 4.00 to 5.00. For the same compound, the “ASMS (R3/R0)” value in assay [2] is on record as “A (an affinity (R3/R0)>100%)”.

For `CN(C)C(=O)c1ccc(Cn2c(C(=O)O)cc3c(-c4ccccc4)cc(Sc4ccc(Cl)c(Cl)c4)cc32)cc1` [I-8, 6-(3,4-dichlorophenylthio)-1-(4-(dimethylcarbamoyl)benzyl)-4-phenyl-1H-indole-2-carboxylic acid], the pIC50 in assay [1] is > 5.00. For the same compound, in assay [2], the “ASMS (R3/R0)” value is on record as “A (an affinity (R3/R0)>100%)”.

Take `O=C(O)c1cc2c(-c3ccccc3)cc(Cl)cc2[nH]1` [I-54, 6-chloro-4-phenyl-1H-indole-2-carboxylic acid]: in assay [1], the pIC50 is 3.52 to 4.00. For the same compound, the “ASMS (R3/R0)” value in assay [2] is on record as “C (an affinity (R3/R0)<20%)”.

Consider `O=C(O)c1cc2c(Br)cc(Sc3ccc(Cl)c(Cl)c3)cc2n1Cc1ccc(C(=O)N(CCO)CCO)cc1` [I-50, 1-(4-(bis(2-hydroxyethyl)carbamoyl)benzyl)-4-bromo-6-(3,4-dichlorophenylthio)-1H-indole-2-carboxylic acid], for which, in assay [1], the pIC50 is > 5.00. In addition, in assay [2], the “ASMS (R3/R0)” value was “B (an affinity (R3/R0) between 100% and 20%)”.

Regarding `CC(O)c1cc2c(Br)cc(Oc3ccccc3)cc2[nH]1` (stereo not shown) [I-218, 1-(4-bromo-6-phenoxy-1H-indol-2-yl)ethanol], in assay [1], the pIC50 is 4.00 to 5.00. Also, the “ASMS (R3/R0)” value in assay [2] is “B (an affinity (R3/R0) between 100% and 20%)”.

For `Cc1ccc(Oc2cc(Cl)cc3[nH]c(C(=O)O)cc23)cc1C(F)(F)F` [I-81, 6-chloro-4-(4-methyl-3-(trifluoromethyl)phenoxy)-1H-indole-2-carboxylic acid], the pIC50 in assay [1] was 4.00 to 5.00. The “ASMS (R3/R0)” value in assay [2] was “B (an affinity (R3/R0) between 100% and 20%)”.

Regarding `O=C(O)c1cc2c(Sc3ccc(OC(F)(F)F)cc3)cc(Cl)cc2[nH]1` [I-129, 6-chloro-4-(4-(trifluoromethoxy)phenylthio)-1H-indole-2-carboxylic acid], the pIC50 in assay [1] is 4.00 to 5.00. Moreover, the “ASMS (R3/R0)” value in assay [2] was “B (an affinity (R3/R0) between 100% and 20%)”.

For the compound `Cc1cc(Sc2ccc(Cl)cc2)c2cc(C(=O)O)[nH]c2c1Br` [I-64, 7-bromo-4-(4-chlorophenylthio)-6-methyl-1H-indole-2-carboxylic acid], the pIC50 in assay [1] is 4.00 to 5.00. The “ASMS (R3/R0)” value in assay [2] was “B (an affinity (R3/R0) between 100% and 20%)”.

With `O=C(NCCN1CCN(c2ccccc2)CC1)c1cc2c(Sc3ccc(Cl)cc3Cl)cc(Cl)cc2[nH]1` [I-119], the pIC50 in assay [1] is < 4.00. The “ASMS (R3/R0)” value in assay [2] was “B (an affinity (R3/R0) between 100% and 20%)”.

Take `O=C(Nc1ncc[nH]1)c1cc2c(Sc3ccc(Cl)cc3)cc(Cl)cc2[nH]1` [I-63]: the negative-log IC50 (pIC50) in assay [1] was < 4.00. The “ASMS (R3/R0)” value in assay [2] was “A (an affinity (R3/R0)>100%)”.

On to `O=C(c1cc2c(Sc3ccc(Cl)cc3Cl)cc(Cl)cc2[nH]1)N1CCNCC1` [I-105, (6-chloro-4-(2,4-dichlorophenylthio)-1H-indol-2-yl)(piperazin-1-yl)methanone], for which the pIC50 in assay [1] is 4.00 to 5.00. In addition, the “ASMS (R3/R0)” value in assay [2] was “B (an affinity (R3/R0) between 100% and 20%)”.

With `OCc1cc2c(F)cc(Oc3ccccc3)cc2[nH]1` [I-249, (4-fluoro-6-phenoxy-1H-indol-2-yl)methanol], the pIC50 in assay [1] is 4.00 to 5.00. Moreover, the “ASMS (R3/R0)” value in assay [2] is reported as “C (an affinity (R3/R0)<20%)”.

With `CN(C)C(=O)c1ccc(Cn2c(C(=O)O)cc3c(Br)nc(Sc4ccc(Cl)c(Cl)c4)cc32)cc1` [I-3, 4-bromo-6-(3,4-dichlorophenylthio)-1-(4-(dimethylcarbamoyl)benzyl)-1H-pyrrolo[3,2-c]pyridine-2-carboxylic acid], the pIC50 in assay [1] is 4.00 to 5.00. In addition, the “ASMS (R3/R0)” value in assay [2] is “B (an affinity (R3/R0) between 100% and 20%)”.

For `O=C1CCc2ccc(Oc3cc(Cl)cc4[nH]c(C(=O)O)cc34)cc2N1` [I-108, 6-chloro-4-(2-oxo-1,2,3,4-tetrahydroquinolin-7-yloxy)-1H-indole-2-carboxylic acid], the pIC50 in assay [1] is 3.52 to 4.00. In addition, the “ASMS (R3/R0)” value in assay [2] was “B (an affinity (R3/R0) between 100% and 20%)”.

For orientation: pIC50 means the negative decadic logarithm of the IC50, by convention in mol/L.
